Experimental data as given in paper PMC11106072, “CDK9 inhibition as an effective therapy for small cell lung cancer” (Cell Death & Disease, 2024).
pIC50: −log10 of the molar value.

Target: T1, CDK9 (Homo sapiens, UniProt P50750)
T1 construct: with CyclinT1
Assay: IMAP fluorescence polarisation kinase assay with CDK9/CyclinT1 (TAMRA-Rbtide, […] ATP); radiometric selectivity panel of […] CDK/cyclin pairs
Type: biochemical

T1 sequence (P50750 whole entry): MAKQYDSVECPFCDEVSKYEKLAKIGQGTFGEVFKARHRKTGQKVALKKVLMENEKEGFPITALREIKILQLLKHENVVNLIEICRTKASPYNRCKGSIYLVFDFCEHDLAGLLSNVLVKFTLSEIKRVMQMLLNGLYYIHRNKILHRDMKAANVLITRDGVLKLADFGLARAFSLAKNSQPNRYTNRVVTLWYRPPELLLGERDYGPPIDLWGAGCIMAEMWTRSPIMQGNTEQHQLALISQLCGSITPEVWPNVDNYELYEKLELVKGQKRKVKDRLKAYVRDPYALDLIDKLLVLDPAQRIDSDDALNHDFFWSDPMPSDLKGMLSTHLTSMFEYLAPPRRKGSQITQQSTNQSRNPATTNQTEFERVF
T1 sequence (O60563 whole entry partner): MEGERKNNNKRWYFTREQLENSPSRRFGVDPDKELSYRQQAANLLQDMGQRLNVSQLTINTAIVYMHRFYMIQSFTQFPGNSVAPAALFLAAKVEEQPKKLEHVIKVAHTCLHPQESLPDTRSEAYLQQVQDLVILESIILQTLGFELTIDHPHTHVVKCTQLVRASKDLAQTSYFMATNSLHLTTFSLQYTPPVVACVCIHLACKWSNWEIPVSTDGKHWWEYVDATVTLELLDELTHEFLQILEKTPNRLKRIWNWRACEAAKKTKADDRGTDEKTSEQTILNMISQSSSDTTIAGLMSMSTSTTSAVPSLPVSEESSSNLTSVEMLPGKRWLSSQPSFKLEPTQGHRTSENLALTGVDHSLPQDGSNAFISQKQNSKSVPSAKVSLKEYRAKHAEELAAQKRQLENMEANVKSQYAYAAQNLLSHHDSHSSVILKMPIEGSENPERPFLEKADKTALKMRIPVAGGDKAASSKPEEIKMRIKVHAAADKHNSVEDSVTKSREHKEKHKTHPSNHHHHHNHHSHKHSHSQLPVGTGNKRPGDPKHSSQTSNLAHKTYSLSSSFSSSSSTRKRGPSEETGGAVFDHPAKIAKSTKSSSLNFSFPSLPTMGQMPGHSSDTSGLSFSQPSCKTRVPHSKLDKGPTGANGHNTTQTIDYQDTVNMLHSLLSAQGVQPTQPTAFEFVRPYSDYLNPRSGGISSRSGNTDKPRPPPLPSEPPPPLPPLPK

Work on `COc1ccccc1-c1ncnc(Nc2cccc(Cn3cnc4ccccc43)c2)n1` [VC-1, VCC972839:01] yielded a pIC50 of 8.15.
